Consider four compounds from publication PMC11597089, “Kratom Alkaloids: A Blood–Brain Barrier Specific Membrane Permeability Assay-Guided Isolation and Cyclodextrin Complexation Study” (Molecules, 2024).

Series [1] in a line: ACE complex stability, γ-CD. The format is physicochemical. Particulars: 30 mM phosphate buffer pH 7.4, 25 °C, 15 kV, 215 nm. As to the method:
(§1) To investigate the CD complexation behavior of the four kratom alkaloids, we aimed to develop an ACE method for a systematic comparative study. […] To ensure sufficient buffer capacity and to avoid excessive current and Joule heat generation, the buffer concentration was set to 30 mM, and the applied voltage was 15 kV.
(§2) The ACE experiments were performed by using Agilent 7100 and HP^3DCE instruments (Agilent Technologies, Waldbronn, Germany). Untreated fused silica capillaries (total length of 48.5 cm, effective length of 40 cm, inner diameter of 50 μm) were purchased from Agilent Technologies. The new capillaries were conditioned with a 1 M NaOH wash for 1 h, followed by a 30 min wash each with 0.1 M NaOH and purified water. Prior to all runs, the capillary was preconditioned by rinsing with background electrolyte for 3 min. During the measurements, 30 mM phosphate buffer at pH 7.4 (30 mM Na2HPO4-NaOH) was used. The background electrolyte contained CDs at various concentrations. Stock solutions of the studied kratom alkaloids (mitragynine, paynantheine, speciogynine, speciociliatine) were prepared separately in methanol (1 mg/mL), and, right before the measurements, appropriate dilutions with purified water were used to prepare the sample solutions, applying 0.1% DMSO as the electroosmotic flow (EOF) marker. The samples were injected hydrodynamically at 40 mbar for 3 s. The positive polarity voltage was set to 15 kV, and the capillary was set to 25 °C. The electropherograms were recorded at four wavelengths (200 nm, 210 nm, 215 nm, and 220 nm), and the data were evaluated at 215 nm. In each case, three parallel measurements were performed. The measurements were evaluated using Origin and CEval software (v. 0.6i3).
In order to determine the complex stability constants that characterized the strength of the complexes, the first step was to determine the effective mobility of the analyte at specific CD concentrations. Triangular peaks caused by electromigration dispersion are often observed in ACE measurements.
Assuming a 1:1 complexation ratio and that the equilibrium CD concentration is almost equal to the total CD concentration, a relationship between the effective mobility relative to the EOF and the complex stability constant can be described by Function (4) (4) μeff=μA+μACDKstabCD/1+KstabCD where µeff is the effective mobility of the analyte, µA and µACD are the free and complexed analyte mobilities, [CD] is the concentration of the selector, and Kstab is the complex stability constant.
In order to calculate the exact, apparent, averaged complex stability constant values, viscosity correction and ionic strength correction were used.

Series [2] in a line: ACE complex stability, Sugammadex. The format is physicochemical. Particulars: octakis(6-deoxy-6-(2-carboxyethyl)thio)-γ-CD, 30 mM phosphate buffer pH 7.4, 25 °C. As to the method: as §1
(§3) The ACE experiments were performed by using Agilent 7100 and HP^3DCE instruments (Agilent Technologies, Waldbronn, Germany). Untreated fused silica capillaries (total length of 48.5 cm, effective length of 40 cm, inner diameter of 50 μm) were purchased from Agilent Technologies. The new capillaries were conditioned with a 1 M NaOH wash for 1 h, followed by a 30 min wash each with 0.1 M NaOH and purified water. Prior to all runs, the capillary was preconditioned by rinsing with background electrolyte for 3 min. During the measurements, 30 mM phosphate buffer at pH 7.4 (30 mM Na2HPO4-NaOH) was used. The background electrolyte contained CDs at various concentrations. […] The electropherograms were recorded at four wavelengths (200 nm, 210 nm, 215 nm, and 220 nm), and the data were evaluated at 215 nm. […] The measurements were evaluated using Origin and CEval software (v. 0.6i3). […]

Series [3] can be described thus: ACE complex stability, HS-β-CD. The format is physicochemical. The settings on record: heptakis-(6-O-sulfo)-β-CD, 30 mM phosphate buffer pH 7.4, 25 °C. How it is done: as §1, §2
(§4) In order to determine the complex stability constants that characterized the strength of the complexes, the first step was to determine the effective mobility of the analyte at specific CD concentrations. Triangular peaks caused by electromigration dispersion are often observed in ACE measurements. […]

Series [4] is described as follows: ACE complex stability, CM-α-CD. The format is physicochemical. The settings on record: carboxymethylated-α-CD DS~3.5, 30 mM phosphate buffer pH 7.4, 25 °C. As to the method: as §1, §2, §4
The nature of series [5]: ACE complex stability, SP-β-CD. The format is physicochemical. Particulars: sulfopropylated-β-CD DS~2, 30 mM phosphate buffer pH 7.4, 25 °C. How it is done:
as §1, §3

The nature of series [6]: ACE complex stability, S-β-CD. The settings on record: sulfated-β-CD DS~13, 30 mM phosphate buffer pH 7.4, 25 °C. The format is physicochemical. How it is done:
as §1, §3

Series [7] is described as follows: ACE complex stability, S-γ-CD. The format is physicochemical. The settings on record: sulfated-γ-CD DS~14, 30 mM phosphate buffer pH 7.4, 25 °C. How it is done:
as §1, §3

Series [8] in a line: phase-solubility study, β-CD. The format is physicochemical. Particulars: 30 mM phosphate buffer pH 7.4, room temperature. How it is done: (§5) Based on our ACE measurements, the promising CDs were selected for phase-solubility studies, along with the most widely used CD excipients, to investigate the effect of CD type and its concentration on mitragynine solubility. The experiments were conducted under conditions similar to those in the ACE measurements, applying 30 mM phosphate buffer (pH 7.4) and room temperature.
(§6) UV spectra and chromatograms were recorded at 200–400 nm, and the chromatogram obtained at 226 nm was used for quantitative analyses.
(§7) Solubility measurements were performed according to Higuchi and Connors. To each 1 mg mitragynine sample, the selected cyclodextrins were added. The final concentration of the CDs was in the range of 0–1 (m/v) %. Suspensions were shaken at room temperature for 24 h and filtered using 0.22 μm filters. The mitragynine concentration in the samples was determined by the above-described UHPLC-UV method. The solubility diagrams were constructed, and the stability constant (Kstab) and complexation efficacy (CE) were calculated using the following formulas:(5) Kstab=slope/S0(1−slope) (6) CE=slope/1−slope where S0 is the intrinsic solubility of a poorly soluble drug. The experiments were performed in a 30 mM phosphate buffer (pH 7.4).

The nature of series [9]: phase-solubility study, HP-β-CD. The format is physicochemical. The settings on record: 30 mM phosphate buffer pH 7.4, room temperature. How it is done:
as §5, §6, §7

Series [10] can be described thus: phase-solubility study, CM-β-CD. The format is physicochemical. Particulars: 30 mM phosphate buffer pH 7.4, room temperature. How it is done: as §5, §6, §7
Series [11] can be described thus: phase-solubility study, Subetadex. The format is physicochemical. Particulars: 30 mM phosphate buffer pH 7.4, room temperature; for complexation efficacy (CE) with Subetadex: phase solubility, calculated from the linear part of the isotherm. How it is done:
as §5
In the case of Subetadex, which had the highest solubility enhancement, an AN-type isotherm could be observed with a negative deviation from linearity, indicating a complex process: either the host ratio inside the complex increased, the solvent–solute interactions altered, or both contributed simultaneously.
as §6, §7

The nature of series [12]: phase-solubility study, Sugammadex. The settings on record: 30 mM phosphate buffer pH 7.4, room temperature. The format is physicochemical. How it is done:
as §5, §6, §7

The nature of series [13]: phase-solubility study, SBE-β-CD DS~6.5. The format is physicochemical. The settings on record: 30 mM phosphate buffer pH 7.4, room temperature. As to the method:
as §5, §6, §7

A short description of series [14]: phase-solubility study, SBE-β-CD DS~10.4. The format is physicochemical. The settings on record: 30 mM phosphate buffer pH 7.4, room temperature. How it is done:
as §5, §6, §7

Series [15] can be described thus: phase-solubility study, S-β-CD. The format is physicochemical. Particulars: 30 mM phosphate buffer pH 7.4, room temperature. How it is done:
as §5, §6, §7

On the set-up of series [16]: method as in PMID 25793541. Particulars: at pH 7; cited from earlier work.
Details of series [17]: method as in PMID 24841968. The settings on record: after 2 h; cited from earlier work.
Details of series [18]: method as in PMID 20454783. Particulars: rats, in words; cited from earlier work.
Details of series [19]: method as in PMID 28551311. Particulars: in vivo microdialysis technique, in words; cited from earlier work.

In the case of `CC[C@@H]1CN2CCc3c([nH]c4cccc(OC)c34)[C@H]2C[C@@H]1/C(=C\OC)C(=O)OC` [Speciociliatine, speciociliatine], in series [1], the “complex stability constant (Kstab) with γ-CD” value is 15 ± 1 M⁻¹. Also, the “complex stability constant (Kstab) with Sugammadex” value in [2] was found to be 700 ± 45 M⁻¹. Further, in [3], the “complex stability constant (Kstab) with HS-β-CD” value was determined as 850 ± 30 M⁻¹.
With `C=C[C@H]1CN2CCc3c([nH]c4cccc(OC)c34)[C@@H]2C[C@@H]1/C(=C\OC)C(=O)OC` [Paynantheine, paynantheine], in [1], the “complex stability constant (Kstab) with γ-CD” value was 140 ± 5 M⁻¹. Further, the “complex stability constant (Kstab) with CM-α-CD” value in [4] came to 175 ± 12 M⁻¹. The “complex stability constant (Kstab) with SP-β-CD” value in [5] was determined as 335 ± 35 M⁻¹. Besides, the “complex stability constant (Kstab) with HS-β-CD” value in series [3] worked out at 575 ± 35 M⁻¹.
For the compound `CC[C@H]1CN2CCc3c([nH]c4cccc(OC)c34)[C@@H]2C[C@@H]1/C(=C\OC)C(=O)OC` [Speciogynine, speciogynine], the “complex stability constant (Kstab) with γ-CD” value in [1] turned out to be 45 ± 4 M⁻¹. In [4], the “complex stability constant (Kstab) with CM-α-CD” value stood at 135 ± 12 M⁻¹. The “complex stability constant (Kstab) with S-β-CD” value in series [6] came to 970 ± 80 M⁻¹. In series [3], the “complex stability constant (Kstab) with HS-β-CD” value was determined as 645 ± 30 M⁻¹.
Broadly, the logD is lipophilicity at a set pH, counting ionised and neutral species. Turning to mitragynine, the “complex stability constant (Kstab) with γ-CD” value in series [1] worked out at 55 ± 5 M⁻¹. Moreover, the “complex stability constant (Kstab) with CM-α-CD” value in series [4] was 155 ± 15 M⁻¹. Also, in series [2], the “complex stability constant (Kstab) with Sugammadex” value was determined as 2050 M⁻¹. Also, in series [5], the “complex stability constant (Kstab) with SP-β-CD” value was determined as 210 ± 25 M⁻¹. Besides, the “complex stability constant (Kstab) with S-γ-CD” value in series [7] was 810 ± 75 M⁻¹. Besides, the “Kstab with β-CD (phase solubility)” value in series [8] (24 h, CD 0–1 (m/v) %) turned out to be 55 M⁻¹. Besides, the “complexation efficacy (CE) with β-CD” value in series [8] (phase solubility) is reported as 0.0021. The “Kstab with HP-β-CD (phase solubility)” value in [9] (24 h, CD 0–1 (m/v) %) is 30 M⁻¹. For the same compound, the “complexation efficacy (CE) with HP-β-CD” value in series [9] (phase solubility) is 0.0011. In series [10] (24 h, CD 0–1 (m/v) %), the “Kstab with CM-β-CD (phase solubility)” value stood at 300 M⁻¹. Besides, the “complexation efficacy (CE) with CM-β-CD” value in series [10] (phase solubility) turned out to be 0.0113. In [11], the “phase-solubility isotherm type with Subetadex” value is given as “AN-type” and the “complexation efficacy (CE) with Subetadex” value is reported as 0.0650. Also, the “Kstab with Subetadex (phase solubility)” value in series [11] (24 h, CD 0–1 (m/v) %) is 1730 M⁻¹. The “complexation efficacy (CE) with Subetadex” value in series [11] (listed as mitragynine) is listed as 0.065. In addition, the “Kstab with Sugammadex (phase solubility)” value in series [12] (24 h, CD 0–1 (m/v) %) was 1150 M⁻¹. Also, the “complexation efficacy (CE) with Sugammadex” value in series [12] (phase solubility) came out at 0.0431. In addition, the “Kstab with SBE-β-CD DS~6.5 (phase solubility)” value in series [13] (24 h, CD 0–1 (m/v) %) worked out at 480 M⁻¹. The “complexation efficacy (CE) with SBE-β-CD DS~6.5” value in series [13] (phase solubility) stood at 0.0181. Besides, in series [14] (24 h, CD 0–1 (m/v) %), the “Kstab with SBE-β-CD DS~10.4 (phase solubility)” value amounted to 1020 M⁻¹. Besides, the “complexation efficacy (CE) with SBE-β-CD DS~10.4” value in series [14] (phase solubility) is reported as 0.0382. Also, the “Kstab with S-β-CD (phase solubility)” value in series [15] (24 h, CD 0–1 (m/v) %) stood at 340 M⁻¹. Also, the “complexation efficacy (CE) with S-β-CD” value in series [15] (phase solubility) worked out at 0.0127. Also, the logD in series [16] was 1.73. Moreover, in series [17], the “degraded under acidic conditions” value was “more than 26%”. Further, the oral bioavailability entry in series [18] is “limited”. Further, the “blood–brain barrier permeability” value in [19] is given as “excellent”.
